Results: ChEMBL document CHEMBL2401656, “LDK378: a promising anaplastic lymphoma kinase (ALK) inhibitor” (J Med Chem, 2013)

Assays:
Canis familiaris = species: Canis familiaris; test: Cardiotoxicity in dog assessed as QTc prolongation by telemetric analysis; format: toxicity, organism-based, Canis lupus familiaris; conditions: in vivo
[1] = Oral bioavailability in rat; format: ADME, organism-based; conditions: in vivo
Rattus norvegicus [2] = test: Toxicity in rat xenografted with human NCI-H2228 cells expressing EML4-ALK fusion gene; format: organism-based; conditions: in vivo
KARPAS-299 [3] = conditions: Homo sapiens
Description: Antitumor activity against human KARPAS299 cells xenografted in rat assessed as tumor growth inhibition

Cytochrome P450 3A4 = Cytochrome P450 3A4 (Homo sapiens, UniProt P08684); test: Inhibition of CYP3A4 (unknown origin); format: ADME
Chain of Cytochrome P450 3A4 (P08684 whole entry): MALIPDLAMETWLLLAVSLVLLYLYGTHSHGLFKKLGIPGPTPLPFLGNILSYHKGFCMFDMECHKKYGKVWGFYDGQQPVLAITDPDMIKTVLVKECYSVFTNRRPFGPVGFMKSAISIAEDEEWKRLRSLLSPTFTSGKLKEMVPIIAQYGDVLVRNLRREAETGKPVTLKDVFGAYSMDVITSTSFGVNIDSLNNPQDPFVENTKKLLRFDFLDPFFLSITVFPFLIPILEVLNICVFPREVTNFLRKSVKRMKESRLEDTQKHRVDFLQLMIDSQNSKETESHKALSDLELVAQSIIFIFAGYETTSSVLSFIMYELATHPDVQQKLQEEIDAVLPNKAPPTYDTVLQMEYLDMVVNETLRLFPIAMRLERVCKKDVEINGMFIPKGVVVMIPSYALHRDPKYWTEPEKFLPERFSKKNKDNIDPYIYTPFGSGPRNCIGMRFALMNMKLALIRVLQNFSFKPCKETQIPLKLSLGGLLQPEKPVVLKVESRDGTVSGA

[4] = Cytotoxicity against mouse BA/F3 cells transfected with Tel-InsR gene assessed as growth inhibition; format: functional, cell-based; conditions: BaF3
[5] = Metabolic stability in liver microsomes (unknown origin); format: ADME, Microsome
[6] = Cytotoxicity against mouse BA/F3 cells expressing NPM-ALK fusion gene assessed as growth inhibition; format: functional, cell-based; conditions: BaF3
[7] = Cytotoxicity against wild type mouse BA/F3 cells assessed as growth inhibition; format: functional, cell-based; conditions: BaF3
Rhesus monkey = test: Cardiotoxicity in monkey assessed as QTc prolongation by telemetric analysis; format: toxicity, organism-based, Macaca mulatta; conditions: in vivo
KARPAS-299 [8] = test: Cytotoxicity against human KARPAS299 cells expressing NPM-ALK fusion gene assessed as growth inhibition
Rattus norvegicus [9] = test: Toxicity in rat xenografted with human KARPAS299 cells; format: organism-based, KARPAS-299; conditions: in vivo

Cc1cc(Nc2ncc(Cl)c(Nc3ccccc3S(=O)(=O)C(C)C)n2)c(OC(C)C)cc1C1CCNCC1 [CERITINIB]
Activity (Canis familiaris): Non-toxic | bioavailability [1]: > 50% | Activity (Rattus norvegicus [2]): Non-toxic | TGI (KARPAS-299 [3]): Dose-dependent effect | inhibition (INH) (Cytochrome P450 3A4): Active | IC50 [4]: 320 nM | Stability [5]: Stable | IC50 [6]: 26 nM | IC50 [7]: > 2000 nM | Activity (Rhesus monkey): Non-toxic | IC50 (KARPAS-299 [8]): 22.8 nM | Activity (Rattus norvegicus [9]): Non-toxic
